The values below come from patent US20100234226A1, “HERBICIDE COMBINATION COMPRISING DIMETHOXYTRIAZINYL-SUBSTITUTED DIFLUOROMETHANESULFONYLANILIDES” (BAYER CROPSCIENCE AG, priority 2008, published 2010).

What all share (assay type): in vivo
Assay [1] concerns Alopecurus myosuroides (ALOMY). Put plainly: Post-emergence action against weeds, greenhouse pot test, Alopecurus myosuroides. The conditions noted are these: 504 h, 21 DAT, 100 g of ai/ha, read-out: % activity found. How it is done:
(§1) Seeds or rhizome pieces of mono- and dicotyledonous harmful and useful plants were placed in peat pots (diameter 4 cm) filled with sandy loam and then covered with soil. The pots were kept in a greenhouse under optimum conditions. In addition, harmful plants encountered in paddy rice cultivation were cultivated in pots with a water level 2 cm above the soil surface.
(§2) About three weeks after the start of the cultivation, the test plants were treated at the 2- to 3-leaf stage. The herbicides, formulated as powder or liquid concentrates, were, either alone or in the combinations according to the invention, sprayed in various dosages on to the green parts of the plants using an application rate of 600 l of water/ha (converted). For further cultivation of the plants, the pots were then again kept under optimum conditions in a greenhouse. […]
(§3) The percentages from the treatments with the herbicides alone (=individual application) and with the combinations according to the invention (=mixtures) were employed to calculate interactions using the method of Colby. When the observed efficacies of the mixtures exceed the formal sum of the values of the tests with individual applications, they also exceed the expected value according to Colby, which is calculated using the formula below (cf. S. R. Colby; in Weeds 15 (1967) pp. 20 to 22): […]

The test system of assay [2] is Pharbitis purpurea (PHBPU). Put plainly: Post-emergence action against weeds, greenhouse pot test, Pharbitis purpurea. To be noted: Ipomoea purpurea, read-out: % activity found; for inhibition at 12 g/ha: 12 g of ai/ha. As to the method: as §1
(§4) About three weeks after the start of the cultivation, the test plants were treated at the 2- to 3-leaf stage. The herbicides, formulated as powder or liquid concentrates, were, either alone or in the combinations according to the invention, sprayed in various dosages on to the green parts of the plants using an application rate of 600 l of water/ha (converted). For further cultivation of the plants, the pots were then again kept under optimum conditions in a greenhouse.
(§5) The visual scoring of the herbicidal effects was carried out in intervals up to 21 days after the treatment. Scoring was carried out in percent in comparison to the untreated control plants. 0%=no herbicidal activity, 100%=complete herbicidal activity=complete kill.
(§6) The percentages from the treatments with the herbicides alone (=individual application) and with the combinations according to the invention (=mixtures) were employed to calculate interactions using the method of Colby. When the observed efficacies of the mixtures exceed the formal sum of the values of the tests with individual applications, they also exceed the expected value according to Colby, which is calculated using the formula below (cf. S. R. Colby; in Weeds 15 (1967) pp. 20 to 22):
(§7) Here: • A, B=activity of components A and B in percent at a dosage of a and b g of ai/ha (=gramm of active substance per hectare), respectively. • E=expected value in % at a dosage of a+b g of ai/ha.
(§8) The combinations according to the invention of herbicides from group (A) with herbicides from group (B) were tested on a broad spectrum of important harmful plants (weed grasses, broad-leaved weeds/Cyperaceae) and useful plants: Triticum aestivum (TRZAS), Stellaria media (STEME), Lolium multiflorum (LOLMU), Veronica persica (VERPE), Alopecurus myosuroides (ALOMY), Matricaria inodora (MATIN), Brassica napus (BRSNW), Viola tricolor (VIOTR), Avena fatua (AVEFA), Amaranthus retroflexus (AMARE), Zea mays (ZEAMX), Pharbitis purpurea (PHBPU), Setaria viridis (SETVI), Fallopia (ex Polygonum) convolvulus (POLCO), Echinochloa crus-gaffi (ECHCG), Abuthilon theophrasti (ABUTH), Cyperus esculentus (CYPES), Oryza sativa (ORYSA).
(§9) Of particular interest are the results shown in the tables (Tab.) below, where the following key is used: • (1) EPPO code (former Bayer code) for the treated plant (see above) • (2) Time of scoring: DAT (days after treatment) • (3) Component A tested (identifying number) • (4) Component B tested (identifying number) • (5) Dosage component A [g of ai/ha] • (6) Dosage component B [g of ai/ha] • (7) % activity found • (8) E value (calculated according to Colby; see above) • (9) Comments: “SYNERGY”=synergistic interaction (E value <% activity found); “SAFENING”=safener action on useful plant (E value >% activity found)

For a further assay, the system named is Viola tricolor (VIOTR). Put plainly: Post-emergence action against weeds, greenhouse pot test, Viola tricolor. To be noted: Viola tricolor, post-emergence, read-out: % activity found; for inhibition at 12 g/ha: 12 g of ai/ha. How it is done:
as §1, §4, §5, §6, §7, §8, §9

The subject of assay [3] is Matricaria inodora (MATIN). Put plainly: Post-emergence action against weeds, greenhouse pot test, Matricaria inodora. To be noted: Tripleurospermum inodorum, post-emergence, read-out: % activity found; for inhibition at 36 g/ha: 36 g of ai/ha. As to the method: as §1, §4, §5, §6, §7
A further assay concerns Avena fatua (AVEFA). Put plainly: Post-emergence action against weeds, greenhouse pot test, Avena fatua. The conditions noted are these: read-out: % activity found; for inhibition at 100 g/ha: 100 g of ai/ha. How it is done: as §1, §4, §5, §6
(§10) Here: • A, B=activity of components A and B in percent at a dosage of a and b g of ai/ha (=gramm of active substance per hectare), respectively. • E=expected value in % at a dosage of a+b g of ai/ha. […]
as §9

The test system of assay [4] is Cyperus esculentus (CYPES). The assay can be described thus: Post-emergence action against weeds, greenhouse pot test, Cyperus esculentus. The conditions noted are these: Cyperus esculentus, post-emergence, read-out: % activity found; for inhibition at 12 g/ha: 12 g of ai/ha. As to the method: as §1, §4, §5, §6, §7
A further assay has as its system Zea mays (ZEAMX). Put plainly: Post-emergence action against weeds, greenhouse pot test, Zea mays. The conditions noted are these: Zea mays, post-emergence, read-out: % activity found; for inhibition at 12 g/ha: 12 g of ai/ha; for inhibition at 36 g/ha: 36 g of ai/ha. How it is done:
as §1, §4, §5, §6, §7, §8, §9

In assay [5] the test system is Amaranthus retroflexus (AMARE). The assay can be described thus: Post-emergence action against weeds, greenhouse pot test, Amaranthus retroflexus. To be noted: read-out: % activity found; for inhibition at 12 g/ha: 12 g of ai/ha; for inhibition at 36 g/ha: 36 g of ai/ha. How it is done: as §1, §4, §5, §6, §7, §8, §9
The test system of assay [6] is Triticum aestivum (TRZAS). Put plainly: Post-emergence action against weeds, greenhouse pot test, Triticum aestivum. The conditions noted are these: 504 h, 21 DAT, read-out: % activity found. As to the method: as §1, §4, §5, §6, §10
Assay [7] relates to Lolium multiflorum (LOLMU). Put plainly: Post-emergence action against weeds, greenhouse pot test, Lolium multiflorum. To be noted: 12 g of ai/ha, read-out: % activity found. As to the method:
as §1, §4, §5, §6, §7, §8, §9

Assay [8] relates to Fallopia (ex Polygonum) convolvulus (POLCO). The assay can be described thus: Post-emergence action against weeds, greenhouse pot test, Fallopia convolvulus. The conditions noted are these: Fallopia convolvulus, post-emergence, 504 h, 21 DAT, read-out: % activity found. How it is done:
as §1, §4, §5, §6, §7, §8, §9

The subject of another assay is Oryza sativa (ORYSA). The assay can be described thus: Post-emergence action against weeds, greenhouse pot test, Oryza sativa. The conditions noted are these: 240 h, 10 DAT, read-out: % activity found. As to the method: as §1, §2, §3
The next assay deals with Setaria viridis (SETVI). Put plainly: Post-emergence action against weeds, greenhouse pot test, Setaria viridis. To be noted: 504 h, 21 DAT, read-out: % activity found. How it is done: as §1, §4, §5, §6, §10
Another assay concerns Veronica persica (VERPE). Put plainly: Post-emergence action against weeds, greenhouse pot test, Veronica persica. The conditions noted are these: read-out: % activity found; for inhibition at 12 g/ha: 12 g of ai/ha; for inhibition at 36 g/ha: 36 g of ai/ha. How it is done:
as §1, §4, §5, §6, §7, §8, §9

Molecules are shown by their SMILES. Like-named read-outs stand apart in the source and are kept apart here.

Turning to `CC1(C)CON(Cc2ccccc2Cl)C1=O` [B-26, 2-[(2-chlorophenyl)methyl]-4,4-dimethyl-3-isoxazolidinone], the inhibition at 100 g/ha amounted to 0% in assay [1]; 0% in [2] (504 h, 21 DAT, 100 g of ai/ha); 40% in assay [3] (10/21 DAT, 100 g of ai/ha); 10% in the assay on Avena fatua (AVEFA) (240 h, 10 DAT); 10% with Avena fatua (AVEFA) (504 h, 21 DAT); 0% in [4] (504 h, 21 DAT, 100 g of ai/ha). Further, in the assay on Zea mays (ZEAMX) (504 h, 21 DAT, 100 g of ai/ha), the inhibition at 100 g/ha is 0%. Besides, the inhibition at 300 g/ha in [2] (504 h, 21 DAT, 300 g of ai/ha) worked out at 0%; in the assay on Viola tricolor (VIOTR) (240 h, 10 DAT, 300 g of ai/ha), 50%; in the assay on Avena fatua (AVEFA) (504 h, 21 DAT, 300 g of ai/ha) it was 30%; in [4] (504 h, 21 DAT, 300 g of ai/ha), 0%; in the assay with Zea mays (ZEAMX) (504 h, 21 DAT, 300 g of ai/ha), 30%.
On to `Cc1ccccc1CO[C@@H]1C[C@@]2(C(C)C)CC[C@]1(C)O2` (racemic) [B-24, exo-(±)-1-methyl-4-(1-methylethyl)-2-[(2-methylphenyl)methoxy]-7-oxabicyclo[2.2.1]heptane], for which the inhibition at 12 g/ha stood at 0% in [5] (240 h, 10 DAT); 0% in assay [5] (504 h, 21 DAT); 0% in assay [2] (240 h, 10 DAT); 0% in assay [2] (504 h, 21 DAT); 0% with Viola tricolor (VIOTR) (240 h, 10 DAT); 0% in the assay with Viola tricolor (VIOTR) (504 h, 21 DAT). The inhibition at 12 g/ha came out at 0% in assay [6] (12 g of ai/ha); 40% in [7] (240 h, 10 DAT); 20% in assay [7] (504 h, 21 DAT); 0% in assay [3] (504 h, 21 DAT, 12 g of ai/ha); 0% in the assay on Avena fatua (AVEFA) (504 h, 21 DAT, 12 g of ai/ha); 0% in assay [8] (12 g of ai/ha). The inhibition at 12 g/ha in [4] (240 h, 10 DAT) was determined as 0%; in assay [4] (504 h, 21 DAT) it was 0%; in the assay with Oryza sativa (ORYSA) (12 g of ai/ha) it was 0%; with Zea mays (ZEAMX) (240 h, 10 DAT) it was 0%; with Zea mays (ZEAMX) (504 h, 21 DAT) it was 0%; in the assay with Setaria viridis (SETVI) (12 g of ai/ha), 30%. In addition, the inhibition at 12 g/ha came out at 0% in the assay on Veronica persica (VERPE) (240 h, 10 DAT) and 0% in the assay on Veronica persica (VERPE) (504 h, 21 DAT). The inhibition at 36 g/ha came out at 0% in [5] (240 h, 10 DAT); 0% in [5] (504 h, 21 DAT); 0% in assay [2] (504 h, 21 DAT, 36 g of ai/ha); 0% in the assay on Viola tricolor (VIOTR) (240 h, 10 DAT, 36 g of ai/ha); 10% in assay [6] (36 g of ai/ha); 0% in assay [3] (240 h, 10 DAT). For the same compound, the inhibition at 36 g/ha in assay [3] (504 h, 21 DAT) came out at 0%; in assay [8] (36 g of ai/ha), 0%; in [4] (504 h, 21 DAT, 36 g of ai/ha), 20%; in the assay with Oryza sativa (ORYSA) (36 g of ai/ha), 20%; with Zea mays (ZEAMX) (240 h, 10 DAT), 20%; with Zea mays (ZEAMX) (504 h, 21 DAT), 0%. Besides, the inhibition at 36 g/ha in the assay with Setaria viridis (SETVI) (36 g of ai/ha) was found to be 50%; in the assay on Veronica persica (VERPE) (240 h, 10 DAT), 0%; with Veronica persica (VERPE) (504 h, 21 DAT), 0%.
